32 compounds from PubChem BioAssay AID624497 (The Scripps Research Institute Molecular Screening Center, 2012) can be followed below.

The test concerns the target Methionine sulfoxide reductase A (Bos taurus). As to the kind of experiment: bovine MsrA activator potency, dose response, biochemical, absorbance, late stage (AID 624497). The following applies: purified MsrA enzyme activity, absorbance read-out.

Activity calls are given as the source filed them. How the calls were made is not given here.

`O=[N+]([O-])c1ccc(C=Nc2cccc3ccccc23)s1`: the EC50 is > 104 µM (inactive).
The same measure for `OCC[n+]1c2ccccc2nc2ccc(N3CCOCC3)cc21`: “inactive”; for `O=C1C(Cl)=C(Nc2ccc(O)cc2)C(=O)c2ccccc21`: > 104 µM (inactive).
Consider `O=C(OCC(=O)c1c[nH]c2ccccc12)c1ccc([N+](=O)[O-])s1`, for which the EC50 was > 104 µM (inactive).
Regarding `O=C(COC(=O)c1ccc([N+](=O)[O-])s1)Nc1cccc(S(=O)(=O)NC2=NCCCCC2)c1`, the EC50 is > 104 µM (inactive).
As to `CNc1ccc2nc3ccccc3[n+](C)c2c1`, the EC50 is 2.05 µM.
The value for `O=C(COC(=O)c1ccc([N+](=O)[O-])s1)c1ccc[nH]1` was “inactive”; that for `O=C1C(=O)c2cccnc2-c2ncccc21` was 4.46 µM; that for `O=C(COC(=O)c1ccc([N+](=O)[O-])s1)NNC(=O)c1ccccc1` was > 104 µM (inactive).
For the compound `O=C1c2ccccc2-c2nnc(-c3ccccc3)cc21`, the EC50 is > 104 µM (inactive).
Regarding `O=C(COC(=O)c1ccc([N+](=O)[O-])s1)NCc1ccc(F)cc1`, the EC50 result was “inactive”.
The value for `Nc1nc(=S)ss1` was “inactive”; that for `c1ccc2[nH]c3cc4ncnc4cc3nc2c1` was “inactive”.
For `CS(=O)(=O)c1ccc(N)c(SSc2cc(S(C)(=O)=O)ccc2N)c1`, the EC50 was > 104 µM (inactive).
The value for `O=C1CN(C(=O)COC(=O)c2ccc([N+](=O)[O-])s2)c2ccccc2N1` was “inactive”; that for `O=C(COC(=O)c1ccc([N+](=O)[O-])s1)NCCc1ccccc1` was “inactive”.
The value for `O=C(OCC(=O)N1CCN(c2ccccc2)CC1)c1ccc([N+](=O)[O-])s1` was “inactive”; that for `O=C(COC(=O)c1ccc([N+](=O)[O-])s1)Nc1ccccc1` was > 104 µM (inactive); that for `Cc1ccc2[nH]c3c(c2c1)CN(C(=O)CN1CCN(c2ccccn2)CC1)CC3` was > 104 µM (inactive).
The value for `O=C(OCc1nnc(-c2ccccc2)o1)c1ccc([N+](=O)[O-])s1` was “inactive”; that for `NC1=C(Br)C(=O)c2ccccc2C1=O` was > 104 µM (inactive); that for `O=C(OCC(=O)N(c1ccccc1)c1ccccc1)c1ccc([N+](=O)[O-])s1` was “inactive”.
For the compound `COc1ccc(S(=O)(=O)N2CCOCC2)cc1NC(=O)COC(=O)c1ccc([N+](=O)[O-])s1`, the EC50 result was “inactive”.
The value for `COc1ccccc1NC(=O)COC(=O)c1ccc([N+](=O)[O-])s1` was “inactive”.
The same measure for `O=C(c1ccccc1)c1coc2c1C(=O)c1ccccc1C2=O`: “inactive”.
The value for `CC(C)(C)c1ccc(NC(=O)COC(=O)c2ccc([N+](=O)[O-])s2)cc1` was > 104 µM (inactive); that for `COCCCn1c(=O)c2ccccc2n2c(=S)[nH]nc12` was > 104 µM (inactive).
As to `Cc1oc2c(c1C(=O)c1ccccc1)C(=O)C(=O)c1ccccc1-2`, the EC50 was > 104 µM (inactive).
Turning to `COc1cc(NC(=O)COC(=O)c2ccc([N+](=O)[O-])s2)cc(OC)c1OC`, the EC50 was > 104 µM (inactive).
The same measure for `C[n+]1c2ccccc2nc2ccc(NCCO)cc21`: 4.93 µM; for `CC1CCCC(NC(=O)COC(=O)c2ccc([N+](=O)[O-])s2)C1C` (configuration not stated): “inactive”.
For the compound `O=C1C=C(Nc2ccccc2O)c2ccccc2C1=O`, the EC50 is > 104 µM (inactive).
